Source: patent US20170158776A1, “TREATMENT OF LUNG CANCER USING A COMBINATION OF AN ANTI-PD-1 ANTIBODY AND ANOTHER ANTI-CANCER AGENT” (Bristol-Myers Squibb Company, priority 2014, published 2017)
Values joined by “and” are separate entries in the source; they are usually repeats but may differ in a detail not shown here. Identical values can stand only once. “Also recorded” adds a separate entry of the source. Marks after values point to notes of the source that are not given here.

Experiments:
[1] = system: heavily pretreated patients with advanced NSCLC; assay: CA209-003 phase 1: nivolumab monotherapy, efficacy (RECIST 1.0, OS, subgroups, PD-L1); format: in vivo, human
Procedure: Objective response rate (ORR) was analyzed according to select patient characteristics (age, gender, Eastern Cooperative Oncology Group performance status [ECOG PS], histology, number of prior therapies, prior tyrosine kinase inhibitor [TKI] therapy, epidermal growth factor receptor [EGFR] and Kirsten rat sarcoma viral oncogene homolog [KRAS] mutational status).
PD-L1 expression in archived tumor samples was measured using the Dako immunohistochemistry (IHC) assay. Positive staining with this assay was defined as tumor membrane staining at any intensity, and was analyzed with cut-off values of 1% and 5% expression to assess PD-L1 positivity (Butte M J, et al.). Tumor PD-L1 expression was evaluated for potential association with clinical endpoints.

[2] = system: heavily pretreated patients with advanced NSCLC; assay: CA209-003 phase 1: nivolumab monotherapy, safety
[3] = system: patients with NSCLC; assay: Nivolumab monotherapy arm (Arm F), safety; format: in vivo, human; details: 3 mg/kg q2w
Procedure: (§1) One arm was developed to test the effect of nivolumab monotherapy on NSCLC. Patients were treated with 3 mg/kg nivolumab (nivo) q2w (once every 2 weeks).

[4] = system: patients with NSCLC; assay: Nivolumab monotherapy arm (Arm F), efficacy; format: in vivo, human
Procedure: as §1

[5] = target: T1, PD-1 (Homo sapiens, UniProt Q15116); details: 15 subjects, 0.3 mg/kg to 10 mg/kg, across all doses, cited from earlier work
T1 construct: Receptor-occupancy data from 15 subjects who received 0.3 mg/kg to 10 mg/kg dosing with nivolumab; endogenous in cells
T1 sequence (Q15116 25-288): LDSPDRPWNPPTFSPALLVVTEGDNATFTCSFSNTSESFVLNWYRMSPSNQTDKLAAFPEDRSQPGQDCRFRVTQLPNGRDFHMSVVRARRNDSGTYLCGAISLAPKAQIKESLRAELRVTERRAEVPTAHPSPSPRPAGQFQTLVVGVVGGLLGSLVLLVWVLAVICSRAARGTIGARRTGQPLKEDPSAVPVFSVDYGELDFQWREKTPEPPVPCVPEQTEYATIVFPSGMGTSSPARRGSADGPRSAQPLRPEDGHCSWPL

[6] = system: pts with advanced NSCLC after first-line PT-based chemotherapy; parameters: species or system human; details: in vivo
Procedure: (§2) Pts with no progression within 42 days of completing ≧4 cycles first-line PT-based chemotherapy (±BEV) were assigned to either nivolumab (N) 5 mg/kg IV Q3W+BEV 15 mg/kg IV Q3W (non-squamous [non-sq] pts only; n=12) or N 3 mg/kg IV Q2W monotherapy (sq arm [n===8] or non-sq arm [n=13]) until progression/unacceptable toxicity (treatment beyond progression allowed based on protocol-defined criteria). ORR was evaluated using RECIST 1.1.

[7] = system: pts with advanced NSCLC after first-line PT-based chemotherapy; assay: Phase 1: switch to nivolumab maintenance as monotherapy or with bevacizumab, efficacy (RECIST 1.1); format: in vivo, human
Procedure: as §2

[8] = system: EGFR MT NSCLC; details: first-line treatment of EGFR MT NSCLC; cited from earlier work

## nivolumab
[1]; 1 mg/kg
  Estimated Median DOR: 63.9 wks
  Median OS: 9.2 mo
  Median PFS: 1.8 mo
  ORR: 3.0%
  OS Rate 1-year: 32%
  OS Rate 2-year: 12%
[1]; 3 mg/kg
  Estimated Median DOR: 74.0 wks
  Median OS: 14.9 mo
  Median PFS: 1.9 mo
  ORR: 24% and 24.3%
  OS Rate 1-year: 56%
  OS Rate 2-year: 45%
[1]; 10 mg/kg
  Estimated Median DOR: 83.1 wks
  Median OS: 9.2 mo
  Median PFS: 3.7 mo
  ORR: 20.3%
  OS Rate 1-year: 40%
  OS Rate 2-year: 19%
[1]; 5 of 6
  of these, responses ongoing at the time of reporting: 83%
[1]; 6/16
  responders who discontinued for reasons other than disease progression and responded for >30 weeks after the last dose: 38%
[1]; 10/22
  Responses ongoing at the time of analysis: 45%
[1]; 11/22
  patients with ORs with response at first assessment (8 weeks): 50%
[1]; All doses
  Estimated Median DOR: 74 wks and 74.0 wks
  Median OS: 9.9 mo
  Median PFS: 2.3 mo
  ORR: 17%
  OS Rate 1-year: 42%
  OS Rate 2-year: 24%
[1]; Non-squamous, 1 mg/kg
  Median OS (95% CI): 9.9 (5.3, 22.5) mo
  ORR: 5.6 (1/18) % (n/N)
  OS Rate 1-year (95% CI): 36 (15, 58)
  OS Rate 2-year (95% CI): 15 (3, 36)
[1]; Non-squamous, 3 mg/kg
  Median OS (95% CI): 18.2 (5.2, NE) mo
  ORR: 26.3 (5/19) % (n/N)
  OS Rate 1-year (95% CI): 62 (37, 80)
  OS Rate 2-year (95% CI): 48 (22, 69)
[1]; Non-squamous, 10 mg/kg
  Median OS (95% CI): 7.4 (4.5, 12.4) mo
  ORR: 18.9 (7/37) % (n/N)
  OS Rate 1-year (95% CI): 36 (21, 52)
  OS Rate 2-year (95% CI): 15 (6, 29)
[1]; Non-squamous, All doses
  Median OS (95% CI): 10.1 mo and 10.1 (5.7, 13.7) mo
  ORR: 17.6 (13/74) % (n/N)
  OS Rate 1-year (95% CI): 43 (32, 54)
  OS Rate 2-year (95% CI): 23 (13, 34)
[1]; PD-L1+ (5% cut-off), Non-squamous
  ORR: 17 (3/18) % (n/N)
[1]; PD-L1+ (5% cut-off), Squamous
  ORR: 13 (2/15) % (n/N)
[1]; PD-L1+ tumors
  Median OS: 7.8 months
  Median PFS: 3.6 months
[1]; PD-L1 cut-off 1%, Negative
  ORR: 17 (5/30) % (n/N)
[1]; PD-L1 cut-off 1%, Positive
  ORR: 13 (5/38) % (n/N)
[1]; PD-L1 cut-off 5%, Negative, all patients
  ORR: 14 (5/35) % (n/N)
[1]; PD-L1 cut-off 5%, Positive, all patients
  ORR: 15 (5/33) % (n/N)
[1]; PD-L1− (5% cut-off), Non-squamous
  ORR: 10 (2/21) % (n/N)
[1]; PD-L1− (5% cut-off), Squamous
  ORR: 21 (3/14) % (n/N)
[1]; PD-L1− tumors
  Median OS: 10.5 months
  Median PFS: 1.8 months
[1]; Squamous, 1 mg/kg
  Median OS (95% CI): 8.0 (2.4, 13.3) mo
  ORR: 0 (0/15) % (n/N)
  OS Rate 1-year (95% CI): 27 (7, 51)
  OS Rate 2-year (95% CI): 9 (1, 32)
[1]; Squamous, 3 mg/kg
  Median OS (95% CI): 9.5 (5.3, NE) mo
  ORR: 22.2 (4/18) % (n/N)
  OS Rate 1-year (95% CI): 49 (23, 71)
  OS Rate 2-year (95% CI): 41 (17, 64)
[1]; Squamous, 10 mg/kg
  Median OS (95% CI): 10.5 (4.9, 16.7) mo
  ORR: 23.8 (5/21) % (n/N)
  OS Rate 1-year (95% CI): 43 (22, 62)
  OS Rate 2-year (95% CI): 22 (7, 42)
[1]; Squamous, All doses
  Median OS (95% CI): 9.2 mo and 9.2 (7.3, 12.5) mo
  ORR: 16.7 (9/54) % (n/N)
  OS Rate 1-year (95% CI): 40 (27, 54)
  OS Rate 2-year (95% CI): 24 (13, 37)
[1]; across doses
  patients maintaining SD for ≧48 weeks: 5%
[2]; N = 129
  Patients with any treatment-related select AE, Any Grade: 41 (53) % (n)
  Patients with any treatment-related select AE, Grade 3-4: 5 (6) % (n)
  select AE Endocrinopathies, Any Grade: 6 (8) % (n)
  select AE Endocrinopathies, Grade 3-4: 0 % (n)
  select AE Gastrointestinal, Any Grade: 12 (15) % (n)
  select AE Gastrointestinal, Grade 3-4: 1 (1) % (n)
  select AE Hepatic, Any Grade: 5 (6) % (n)
  select AE Hepatic, Grade 3-4: 1 (1) % (n)
  select AE Infusion reaction, Any Grade: 4 (5) % (n)
  select AE Infusion reaction, Grade 3-4: 1 (1) % (n)
  select AE Pulmonary, Any Grade: 7 (9)^c % (n)
  select AE Pulmonary, Grade 3-4: 2 (3) % (n)
  select AE Renal, Any Grade: 3(4) % (n)
  select AE Renal, Grade 3-4: 0 % (n)
  select AE Skin, Any Grade: 16 (20) % (n)
  select AE Skin, Grade 3-4: 0 % (n)
[2]; NSCLC cohort
  decreased appetite: 12%
  diarrhea: 10%
  fatigue: 24%
[2]; NSCLC cohort (n = 129)
  Rate of grade 3-4 treatment-related AEs: 14%
[2]; NSCLC cohort, 4 patients
  patients with grade 3-5 treatment-related pneumonitis: 3%
[2]; NSCLC cohort, 12 patients
  patients with treatment-related pulmonary events: 9%
[2]; all associated with pneumonitis
  treatment-related deaths: Three
[2]; overall study patient population (N = 306)
  Rate of grade 3-4 treatment-related AEs: 17%
[2]; up to 10 mg/kg every two weeks
  maximum tolerated dose: without reaching the maximum tolerated does (MTD); also recorded: A maximum tolerated dose was not reached
[3]; n = 52
  Arthralgia, All Gr: 5 (9.6) n (%)
  Arthralgia, GR ¾: 0 n (%)
  Constipation, All Gr: 3 (5.8) n (%)
  Constipation, GR ¾: 0 n (%)
  Diarrhea, All Gr: 6 (11.5) n (%)
  Diarrhea, GR ¾: 1 (1.9) n (%)
  Fatigue, All Gr: 15 (28.8) n (%)
  Fatigue, GR ¾: 0 n (%)
  Hypothyriodism, All Gr: 3 (5.8) n (%)
  Hypothyriodism, GR ¾: 0 n (%)
  Nausea, All Gr: 7 (13.5) n (%)
  Nausea, GR ¾: 0 n (%)
  Pneumonitis, All Gr: 3 (5.8) n (%)
  Pneumonitis, GR ¾: 1 (1.9) n (%)
  Pruritus, All Gr: 6 (11.5) n (%)
  Pruritus, GR ¾: 0 n (%)
  Rash, All Gr: 10 (19.2) n (%)
  Rash, GR ¾: 2 (3.8) n (%)
  Total patients with an event, All Gr: 37 (71.2) n (%)
  Total patients with an event, GR ¾: 10 (19.2) n (%)
  Vomiting, All Gr: 3 (5.8) n (%)
  Vomiting, GR ¾: 0 n (%)
[3]; 52 treated
  Discontinued subjects: Toxicity: 6 (12%)
[4]; Arm F (n = 52)
  Best Overall Response: CR: 4 (8%)
  Best Overall Response: PD: 20 (38%)
  Best Overall Response: PR: 8 (15%)
  Best Overall Response: SD: 14 (27%)
  Best Overall Response: Unable to determine: 6 (12%)
  Best Overall Response: Unconfirmed PR: 0
  Confirmed DCR: 26 (50%)
  Confirmed ORR: 12 (23%)
  Overall DCR: 26 (50%)
  Overall ORR: 12 (23%)
[4]; Arm F N = 52
  >80% target lesion reduction at 18 wks: 3 (6%)
  Median OS: 22.6 mos
  Median PFS: 15.6 wks
  Number of responders: 12 (23%)
  OS rate at 12 months: 74%
  Ongoing responder: 8 (67%)
  PFS rate at 24 weeks: 41%
[4]; Non-squamous (n = 39)
  Best Overall Response: CR: 3 (8%)
  Best Overall Response: PD: 7 (18%)
  Best Overall Response: PR: 7 (18%)
  Best Overall Response: SD: 0
  Best Overall Response: Unable to determine: 6 (15%)
  Best Overall Response: Unconfirmed PR: 0
  Confirmed DCR: 18 (46%)
  Confirmed ORR: 10 (26%)
  Overall DCR: 18 (46%)
  Overall ORR: 10 (26%)
[4]; Squamous (n = 13)
  Best Overall Response: CR: 1 (8%)
  Best Overall Response: PD: 5 (38%)
  Best Overall Response: PR: 1 (8%)
  Best Overall Response: SD: 6 (46%)
  Best Overall Response: Unable to determine: 0
  Best Overall Response: Unconfirmed PR: 0
  Confirmed DCR: 8 (62%)
  Confirmed ORR: 2 (15%)
  Overall DCR: 8 (62%)
  Overall ORR: 2 (15%)
[5]; range 59% to 81%
  mean plateau PD-1 occupancy: 72%
[5]; range 70% to 97%
  mean PD-1 occupancy rate: 85%
[6]
  Any-grade treatment-related adverse events: 62%
  grade 3 pleural effusion: 1 n
  grade 3 pneumonitis: 2 n
  pts discontinued due to treatment-related AEs: Four
  treatment-related grade 4 AEs: No treatment-related grade 4 AEs were reported
[7]; all pts of the treatment
  Stable disease as best overall response: 48%
[7]; non-sq pts
  Median PFS: 21.4 weeks
  Stable disease as best overall response: 46%
[7]; sq pts
  Median PFS: 16.0 weeks
  Stable disease as best overall response: 50%
[7]; switch maintenance
  Median OS: not reached
[7]; switch maintenance, RECIST 1.1
  ORR: 10%

## C#Cc1cccc(Nc2ncnc3cc(OCCOC)c(OCCOC)cc23)c1 [erlotinib]
[8]
  median progression-free survival (PFS): 10.4 months
